Measurements: PMC10968680, “FHND004 inhibits malignant proliferation of multiple myeloma by targeting PDZ-binding kinase in MAPK pathway” (Aging (Albany NY), 2024)
Substitutions are numbered along the chain they refer to.

Legend:
[1] = target: T1, PDZ-binding kinase (PBK) (Homo sapiens, UniProt Q96KB5, D125A/N124A); test: microscale thermophoresis (MST)
T1 sequence (Q96KB5 1-322 N124A/D125A): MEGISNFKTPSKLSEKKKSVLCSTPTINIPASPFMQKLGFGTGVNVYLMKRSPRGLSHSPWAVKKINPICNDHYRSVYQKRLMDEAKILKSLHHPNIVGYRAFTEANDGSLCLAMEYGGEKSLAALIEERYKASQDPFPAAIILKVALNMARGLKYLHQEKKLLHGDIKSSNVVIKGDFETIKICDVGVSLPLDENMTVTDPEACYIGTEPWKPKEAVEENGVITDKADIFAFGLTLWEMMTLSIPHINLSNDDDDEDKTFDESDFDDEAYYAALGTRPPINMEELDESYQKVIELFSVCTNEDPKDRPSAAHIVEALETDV

[2] = target: T2, PDZ-binding kinase (PBK) (Homo sapiens, UniProt Q96KB5); test: microscale thermophoresis (MST) with RED-NHS labelled purified PBK
T2 sequence (Q96KB5 1-322): T1 sequence (Q96KB5 1-322 N124A/D125A) with A124N, A125D

Which Kd [1] does the source give for `C=CC(=O)Nc1cc(Nc2nccc(-c3cn4c5c(cccc35)CCC4)n2)c(OC)cc1N(C)CCN(C)C` [FHND004] here?
Its Kd is 99.5 µM.

And the Kd [2]?
Its Kd is 3.1 µM.
